From ChEMBL document CHEMBL3120134, “A review of non-nucleoside anti-hepatitis B virus agents” (Eur J Med Chem, 2014) come the findings set out here.

Structures are written as SMILES. ≈ marks a conversion by molar mass, not a printed value.

In data set [1] the test system is Hepatitis B virus. Put plainly: Antiviral activity against Hepatitis B virus infected in human HepG2.2.15 cells assessed as decrease in HBV DNA production. In kind it is functional, organism-based. As to conditions: HepG2 2.2.15.
Data set [2] can be described thus: Selectivity index, ratio of cytotoxicity towards human HepG2.2.15 cells to IC50 for HBV DNA production. In kind it is toxicity, cell-based. As to conditions: read-out: Selectivity Index.
The test system of data set [3] is Hepatitis B virus. The experiment in a line: Antiviral activity against Hepatitis B virus assessed as inhibition of interaction between Trx-PreS and HBcAg. In kind it is functional, organism-based.
Data set [4] relates to Hepatitis B virus. The experiment in a line: Antiviral activity against Hepatitis B virus infected in human HepG2.2.15 cells assessed as decrease in HBV surface antigen secretion. It is filed as functional, organism-based, HepG2 2.2.15. The note with it: Hepatitis B virus, HepG2 2.2.15.
Data set [5] can be described thus: Selectivity index, ratio of cytotoxicity towards human HepG2.2.15 cells to IC50 for HBV e antigen secretion. In kind it is toxicity, cell-based. The note with it: read-out: Selectivity Index.
For data set [6], the system named is Hepatitis B virus. Put plainly: Antiviral activity against Hepatitis B virus infected in human HepG2.2.15 cells assessed as decrease in HBV e antigen secretion. It is filed as functional, organism-based, HepG2 2.2.15. The note with it: Hepatitis B virus, HepG2 2.2.15.
Data set [7] deals with Hepatitis B virus. The experiment in a line: Antiviral activity against Hepatitis B virus. In kind it is functional, organism-based.
Data set [8] in a line: Selectivity index, ratio of cytotoxicity towards human HepG2.2.15 cells to IC50 for HBV surface antigen secretion. It is filed as toxicity, cell-based. The note with it: read-out: Selectivity Index.
The subject of data set [9] is Duck hepatitis B virus. The experiment in a line: Antiviral activity against Duck Hepatitis B virus infected in duckling assessed as decrease in DHBV DNA replication at 0.2 g/kg dosed for 10 days. In kind it is functional. The note with it: 240 h.
Data set [10] has as its system Hepatitis B virus. Put plainly: Antiviral activity against Hepatitis B virus assessed as inhibition of Hepatitis B virus DNA replication. In kind it is functional, organism-based.
The subject of data set [11] is Hepatitis B virus. Put plainly: Antiviral activity against Hepatitis B virus infected in human HepG2.2.15 cells assessed as decrease in HBV surface antigen secretion after 21 days. In kind it is functional, organism-based. As to conditions: HepG2 2.2.15, 504 h.
Data set [12] relates to Hepatitis B virus. Put plainly: Antiviral activity against Hepatitis B virus assessed as inhibition of Hepatitis B virus e antigen secretion. In kind it is functional, organism-based.
Data set [13] has as its system Hepatitis B virus. Put plainly: Antiviral activity against Hepatitis B virus assessed as inhibition of Hepatitis B virus surface antigen secretion. In kind it is functional, organism-based.
Data set [14] concerns Hepatitis B virus. The experiment in a line: Antiviral activity against Hepatitis B virus infected in human HepG2.2.15 cells assessed as decrease in HBV e antigen secretion by ELISA. In kind it is functional, organism-based. As to conditions: HepG2 2.2.15. A general note: In an ELISA, binding on a coated surface is turned into a signal by an enzyme label.
Data set [15] relates to Hepatitis B virus. Put plainly: Antiviral activity against Hepatitis B virus infected in human HepG2.2.15 cells assessed as decrease in HBV DNA production by quantitative RT-PCR analysis. It is filed as functional, organism-based. The note with it: HepG2 2.2.15.
Data set [16] deals with Hepatitis B virus. The experiment in a line: Antiviral activity against Hepatitis B virus infected in human HepG2.2.15 cells assessed as decrease in HBV surface antigen secretion by ELISA. The note with it: HepG2 2.2.15. In kind it is functional, organism-based.
Data set [17] relates to Hepatitis B virus. The experiment in a line: Antiviral activity against Hepatitis B virus infected in human MS-G2 cells assessed as decrease in HBV surface antigen production at 20 ug/ml. It is filed as functional.
Data set [18] deals with Hepatitis B virus. Put plainly: Antiviral activity against Hepatitis B virus infected in human HepG2.2.15 cells assessed as decrease in HBV e antigen secretion after 9 days. In kind it is functional, organism-based. As to conditions: HepG2 2.2.15, 216 h.

In the case of `CCOC(=O)c1cc2cc(OC)c(O)c(Cn3ccnc3)c2nc1C[S+]([O-])c1ccc(F)c(F)c1` (stereo unspecified), in [1], the IC50 (usually the point on the concentration scale where inhibition reaches its midpoint) was found to be 2600 nM. In addition, in data set [2], the selectivity ratio turned out to be 61.7.
On to `COc1cc2cc3c(nc2c(CN2CCCC2)c1O)-c1ccc(C)cc1SC3`, for which the concentration for half-maximal inhibition (IC50) in data set [1] is less than 10000 nM.
Take `COc1cc2cc3c(nc2c(CN2CCCCC2)c1O)-c1ccc(F)cc1SC3`: the IC50 in data set [1] is less than 10000 nM.
Turning to `COc1ccc2c(c1)-c1nc3c(CN4CCCCC4)c(O)c(OC)cc3cc1CS2`, the 50% inhibitory concentration (IC50) in data set [1] was less than 10000 nM.
For `COc1cc2cc3c(nc2c(Cn2ccnc2C)c1O)-c1ccc(F)cc1SC3`, the 50% inhibitory concentration (IC50) in data set [1] was 1700 nM. Besides, the selectivity ratio in data set [2] turned out to be 60.3.
Regarding `O=C1OC(OCc2ccccc2)=N/C1=C\c1ccccc1`, the IC50 in [3] amounted to 5400 nM.
`CC(=O)O[C@H]([C@@H](O)C[C@@H](C)C1=C2C[C@H](O)[C@H]3[C@@]4(C)CCC(=O)C(C)(C)[C@@H]4CC[C@]3(C)[C@@]2(C)CC1)C(C)(C)O`: in [4], the IC50 stood at 600 nM.
In the case of `C=C(C)[C@H](O)[C@@H](O)C[C@@H](C)C1=C2C[C@H](O)[C@H]3[C@@]4(C)CCC(=O)C(C)(C)[C@@H]4CC[C@]3(C)[C@@]2(C)CC1`, in [4], the half-inhibitory concentration (IC50) was 600 nM.
Same read-out and setting: under `C[C@@H]1C[C@@H]([C@@H](O)C(C)(C)O)O[C@H]2C[C@@]3(C)C(=C12)C[C@H](O)[C@H]1[C@@]2(C)CCC(=O)C(C)(C)[C@@H]2CC[C@@]13C` stands 600 nM.
`CC(=O)O[C@H]([C@@H]1C[C@@H](C)C2=C3C[C@H](O)[C@H]4[C@@]5(C)CCC(=O)C(C)(C)[C@@H]5CC[C@]4(C)[C@@]3(C)C[C@@H]2O1)C(C)(C)O`: the IC50 stood at 600 nM in data set [4] and 5100 nM in data set [6]. The selectivity ratio in [5] is 18.5.
For `O=C1NCc2c1cc1ccc3c(c1c2-c1ccc2c(c1)OCO2)OCO3`, the concentration for a half-maximal effect (EC50) (commonly the midpoint of the concentration-response curve) in data set [7] was 80 nM.
In turn, `O=c1[nH][nH]c(=O)c2c(-c3ccc4c(c3)OCO4)c3c4c(ccc3cc12)OCO4` yielded a 50% effective concentration (EC50) in data set [7] of 30 nM.
Consider `C[C@H](C[C@H](O)[C@@H](O)C(C)(C)O)[C@]12CC[C@@]3(C)[C@@]1(C[C@H](O)[C@H]1[C@@]4(C)CCC(=O)C(C)(C)[C@@H]4CC[C@@]13C)O2`, for which, in data set [4], the 50% inhibitory concentration (IC50) came to 600 nM.
With `C[C@@H]1CC[C@]2(C(=O)O[C@@H]3O[C@H](CO)[C@@H](O)[C@H](O)[C@H]3O)CC[C@]3(C)C(=CC[C@@H]4[C@@]5(C)C[C@@H](O)[C@H](O)C(C)(C)[C@@H]5CC[C@]43C)[C@@H]2[C@]1(C)O`, the selectivity ratio was 4.1 in data set [8], 7.86 in data set [5] and 12.1 in data set [2]. In addition, the IC50 in data set [4] was 57.7 µg/mL; in data set [1], 19.4 µg/mL; in [6], 30 µg/mL. Moreover, in data set [9], the inhibition in vivo (usually the change of the read-out against control, counted positive when it falls) at 200 mg/kg came out at 58.5%.
For the compound `CCN(CC)Cc1c(O)c(OC)cc2nc3c(cc12)CSc1ccc(C)cc1-3`, the IC50 in [1] was less than 10000 nM.
For `CCN(CC)Cc1c(O)c(OC)cc2nc3c(cc12)CSc1cc(F)ccc1-3`, the IC50 in data set [1] is less than 10000 nM.
On the same count and under the same terms, to `COc1cc2nc3c(cc2c(CN2CCCCC2)c1O)CSc1c(C)cc(C)cc1-3` belongs less than 10000 nM.
Turning to `COC(=O)C1=C(C)NC(c2ncc(F)cc2F)=N[C@H]1c1ccc(F)cc1Cl`, in [10], the IC50 is 50 nM.
In the case of `C[C@@H]1CC[C@H]2[C@@H](C)C(=O)O[C@@H]3O[C@@]4(C)CC[C@@H]1[C@]32OO4` [ARTEMISININ], the IC50 in data set [11] stood at 55000 nM.
As to `C[C@H]1[C@H](OC(=O)CCC(=O)O)O[C@@H]2O[C@@]3(C)CC[C@H]4[C@H](C)CC[C@@H]1[C@@]24OO3` [ARTESUNATE], in [11], the IC50 stood at 2300 nM.
`COc1ccc2c(c1OC)CN(C)c1c-2ccc2cc3c(cc12)OCO3` [DIHYDROCHELERYTHRINE]: the concentration for half-maximal inhibition (IC50) in data set [12] and in [13] was less than 50 nM each time.
In turn, `O=C1OCc2c1cc1ccc3c(c1c2-c1ccc2c(c1)OCO2)OCO3` [HELIOXANTHIN] displayed an EC50 in data set [7] of 1000 nM.
`Nc1ccn([C@@H]2CS[C@H](CO)O2)c(=O)n1` [LAMIVUDINE]: the values for the half-inhibitory concentration (IC50) in data set [1] and in data set [10] were 343000 nM and 260 nM, respectively. In data set [2], the selectivity ratio is 7.
With `Cc1oc2nc1C(=O)N[C@@H](C)c1nc(co1)C(=O)N[C@@H](CC(C)C)C(=O)N1CCC[C@H]1C(=O)N[C@@H](C(C)C)c1nc-2cs1` [LEUCAMIDE A], the IC50 in [10] was 76400 nM.
Take `CC(=O)Oc1ccccc1C(=O)Nc1ncc([N+](=O)[O-])s1` [NITAZOXANIDE]: the half-maximal effective concentration (EC50) in data set [7] was 120 nM.
In the case of `O=Cc1ccc(O)c(O)c1` [PROTOCATECHUALDEHYDE], the EC50 turned out to be 2.46 µg/mL (≈ 17.8 µM) in [14] and 3.94 µg/mL (≈ 28.5 µM) in [16]. For the same compound, in [15], the concentration for half-maximal inhibition (IC50) came to 4.17 µg/mL (≈ 30.2 µM).
Take `Cc1cc(O)c2c(c1)C(=O)c1cccc(O[C@@H]3O[C@H](CO)[C@@H](O)[C@H](O)[C@H]3O)c1C2=O` [PULMATIN]: the selectivity ratio in data set [8], in data set [5] and in data set [2] was more than 42 in each case.
`COc1c(O)cc(O)c2c(=O)cc(-c3ccccc3)oc12` [WOGONIN]: in data set [17], the inhibition (usually the relative decrease from the control value, in per cent) at 20 µg/mL came to 45.4%. Besides, the IC50 in data set [18] came to 4 µg/mL (≈ 14.1 µM).
